Patent publication US9695155B2, “Herbicidal substituted pyrimidinyloxy benzene compounds” (E. I. DU PONT DE NEMOURS AND COMPANY, priority 2013, dated 2017)

What was measured:
kochia [1] = assay: Test A postemergence; assay type: in vivo, Kochia scoparia; conditions: 0 to 100 scale, 0 no effect, 100 complete control
Summary of the method: (§1)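 Visual injury scored 0–100 (100 = complete control) against untreated controls about 10 days after treatment in a greenhouse. Test chemicals, formulated with surfactant in non-phytotoxic solvent, were sprayed on soil preemergence or on 2-10 cm, one- to two-leaf plants postemergence.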

kochia [2] = assay: Test A preemergence; assay type: in vivo, Kochia scoparia; conditions: for Plant response rating, Kochia: 31 g ai/ha, 0 to 100 scale where 0 is no effect and 100 is complete control, visual, approximately 10 days; for Kochia plant response rating (0 to 100 scale): 125 g ai/ha
Summary of the method: as §1

barnyardgrass [3] = assay: Test A preemergence; assay type: in vivo, Echinochloa crus-galli; conditions: for Plant response rating, Barnyardgrass: 31 g ai/ha, 0 to 100 scale where 0 is no effect and 100 is complete control, visual, approximately 10 days; for Barnyardgrass plant response rating (0 to 100 scale, 0 is no effect, 100 is complete control): 125 g ai/ha
Summary of the method: as §1

blackgrass = assay: Test A postemergence; assay type: in vivo, Alopecurus myosuroides; conditions: 0 to 100 scale, 0 no effect, 100 complete control
Summary of the method: as §1

barnyardgrass [4] = assay: Test B flooded paddy test; assay type: in vivo, Echinochloa crus-galli; conditions: Flood, 250 g ai/ha; 0 to 100 scale where 0 is no effect and 100 is complete control
Summary of the method: (§2)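 Flooded to 3 cm at the 2-leaf stage, pots received compound through the paddy water and were kept at that depth under greenhouse conditions. After 13–15 days, effect was rated by eye relative to controls, 0 = none and 100 = complete control.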

giant foxtail [5] = assay: Test A postemergence; assay type: in vivo, Setaria faberii; conditions: 0 to 100 scale, 0 no effect, 100 complete control
Summary of the method: as §1

giant foxtail [6] = assay: Test A preemergence; assay type: in vivo, Setaria faberii; conditions: for Plant response rating, Foxtail, Giant: 31 g ai/ha, 0 to 100 scale where 0 is no effect and 100 is complete control, visual, approximately 10 days; for Foxtail, Giant plant response rating (0 to 100 scale): 125 g ai/ha
Summary of the method: as §1

ragweed [7] = assay: Test A postemergence; assay type: in vivo, Ambrosia elatior; conditions: 0 to 100 scale, 0 no effect, 100 complete control
Summary of the method: as §1

wheat = assay: Test A postemergence; assay type: in vivo, Triticum aestivum; conditions: 0 to 100 scale, 0 no effect, 100 complete control
Summary of the method: as §1

ragweed [8] = assay: Test A preemergence; assay type: in vivo, Ambrosia elatior; conditions: for Plant response rating, Ragweed: 31 g ai/ha, 0 to 100 scale where 0 is no effect and 100 is complete control, visual, approximately 10 days; for Ragweed plant response rating (0 to 100 scale): 125 g ai/ha
Summary of the method: as §1

sedge, umbrella = assay: Test B flooded paddy test; assay type: in vivo, Cyperus difformis; conditions: Flood, 250 g ai/ha; 0 to 100 scale where 0 is no effect and 100 is complete control
Summary of the method: as §2

pigweed [9] = assay: Test A postemergence; assay type: in vivo, Amaranthus retroflexus; conditions: 0 to 100 scale, 0 no effect, 100 complete control
Summary of the method: as §1

barnyardgrass [10] = assay: Test A postemergence; assay type: in vivo, Echinochloa crus-galli; conditions: 0 to 100 scale, 0 no effect, 100 complete control
Summary of the method: as §1

Italian ryegrass [11] = assay: Test A preemergence; assay type: in vivo, Lolium multiflorum; conditions: for Plant response rating, Ryegrass, Italian: 31 g ai/ha, 0 to 100 scale where 0 is no effect and 100 is complete control, visual, approximately 10 days; for Ryegrass, Italian plant response rating (0 to 100 scale): 125 g ai/ha
Summary of the method: as §1

rice = assay: Test B flooded paddy test; assay type: in vivo, Oryza sativa; conditions: Flood, 250 g ai/ha; 0 to 100 scale where 0 is no effect and 100 is complete control
Summary of the method: as §2

galium = assay: Test A postemergence; assay type: in vivo, Galium aparine; conditions: 0 to 100 scale, 0 no effect, 100 complete control
Summary of the method: as §1

Italian ryegrass [12] = assay: Test A postemergence; assay type: in vivo, Lolium multiflorum; conditions: 0 to 100 scale, 0 no effect, 100 complete control
Summary of the method: as §1

Heteranthera limosa = assay: Test B flooded paddy test; assay type: in vivo; conditions: Flood, 250 g ai/ha; 0 to 100 scale where 0 is no effect and 100 is complete control
Summary of the method: as §2

pigweed [13] = assay: Test A preemergence; assay type: in vivo, Amaranthus retroflexus; conditions: for Plant response rating, Pigweed: 31 g ai/ha, 0 to 100 scale where 0 is no effect and 100 is complete control, visual, approximately 10 days; for Pigweed plant response rating (0 to 100 scale): 125 g ai/ha
Summary of the method: as §1

corn = assay: Test A postemergence; assay type: in vivo, Zea mays; conditions: 0 to 100 scale, 0 no effect, 100 complete control
Summary of the method: as §1

[14] = 1000 g ai/ha, 0 to 100 scale, 0 no effect, 100 complete control, approx. 10 days

| SMILES | Plant response rating, Kochia (kochia [1]; 31 g ai/ha) | Plant response rating, Kochia (kochia [1]; 125 g ai/ha) | Plant response rating, Kochia (kochia [2]) | Kochia plant response rating (0 to 100 scale) (kochia [2]) | Plant response rating, Barnyardgrass (barnyardgrass [3]) | Barnyardgrass plant response rating (0 to 100 scale, 0 is no effect, 100 is complete control) (barnyardgrass [3]) | Plant response rating, Blackgrass (blackgrass; 31 g ai/ha) | Plant response rating, Blackgrass (blackgrass; 125 g ai/ha) | Plant response rating, Barnyardgrass (barnyardgrass [4]) | Plant response rating, Foxtail, Giant (giant foxtail [5]; 31 g ai/ha) | Plant response rating, Foxtail, Giant (giant foxtail [5]; 125 g ai/ha) | Plant response rating, Foxtail, Giant (giant foxtail [6]) | Foxtail, Giant plant response rating (0 to 100 scale) (giant foxtail [6]) | Plant response rating, Ragweed (ragweed [7]; 31 g ai/ha) | Plant response rating, Ragweed (ragweed [7]; 125 g ai/ha) | Plant response rating, Wheat (wheat; 31 g ai/ha) | Plant response rating, Wheat (wheat; 125 g ai/ha) | Plant response rating, Sedge, Umbrella (sedge, umbrella) | Plant response rating, Rice (rice) | Plant response rating, Ducksalad (Heteranthera limosa) | also measured |
| --- | --- | --- | --- | --- | --- | --- | --- | --- | --- | --- | --- | --- | --- | --- | --- | --- | --- | --- | --- | --- | --- |
| Cc1cc(C(F)(F)F)nn1-c1ccccc1Oc1ncc(Cl)cn1 [Compound 266] | 0 | 0 | 0 | 0 | 0 | 0 | 0 | 0 | 0 | 0 | 0 | 0 | 0 | 0 | 0 | 0 | 0 | 0 | 0 | 0 | Plant response rating, Ragweed (ragweed [8]): 0; Ragweed plant response rating (0 to 100 scale) (ragweed [8]): 0; Plant response rating, Pigweed (pigweed [9]; 31 g ai/ha): 0; Plant response rating, Pigweed (pigweed [9]; 125 g ai/ha): 0; Plant response rating, Barnyardgrass (barnyardgrass [10]; 31 g ai/ha): 0; Plant response rating, Barnyardgrass (barnyardgrass [10]; 125 g ai/ha): 0; Plant response rating, Ryegrass, Italian (Italian ryegrass [11]): 0; Ryegrass, Italian plant response rating (0 to 100 scale) (Italian ryegrass [11]): 0; Plant response rating, Galium (galium; 31 g ai/ha): 0; Plant response rating, Galium (galium; 125 g ai/ha): 0; Plant response rating, Ryegrass, Italian (Italian ryegrass [12]; 31 g ai/ha): 0; Plant response rating, Ryegrass, Italian (Italian ryegrass [12]; 125 g ai/ha): 0; Plant response rating, Pigweed (pigweed [13]): 0; Pigweed plant response rating (0 to 100 scale) (pigweed [13]): 0; Plant response rating, Corn (corn; 31 g ai/ha): 0; Plant response rating, Corn (corn; 125 g ai/ha): 0 |
| Fc1cccc(Oc2ncc(Cl)cn2)c1-n1cc(OC(F)F)cn1 [Compound 271] | 70 | 100 | 70 | 100 | 20 | 100 | 10 | 80 | 0 | 10 | 90 | 40 | 100 | 0 | 80 | 0 | 40 | 60 | 0 | 90 | Plant response rating, Ragweed (ragweed [8]): 0; Ragweed plant response rating (0 to 100 scale) (ragweed [8]): 20; Plant response rating, Pigweed (pigweed [9]; 31 g ai/ha): 70; Plant response rating, Pigweed (pigweed [9]; 125 g ai/ha): 100; Plant response rating, Barnyardgrass (barnyardgrass [10]; 31 g ai/ha): 10; Plant response rating, Barnyardgrass (barnyardgrass [10]; 125 g ai/ha): 80; Plant response rating, Ryegrass, Italian (Italian ryegrass [11]): 0; Ryegrass, Italian plant response rating (0 to 100 scale) (Italian ryegrass [11]): 10; Plant response rating, Galium (galium; 31 g ai/ha): 70; Plant response rating, Galium (galium; 125 g ai/ha): 100; Plant response rating, Ryegrass, Italian (Italian ryegrass [12]; 31 g ai/ha): 0; Plant response rating, Ryegrass, Italian (Italian ryegrass [12]; 125 g ai/ha): 30; Plant response rating, Pigweed (pigweed [13]): 90; Pigweed plant response rating (0 to 100 scale) (pigweed [13]): 100; Plant response rating, Corn (corn; 31 g ai/ha): 20; Plant response rating, Corn (corn; 125 g ai/ha): 30 |
| O=Cc1cn(-c2ccccc2Oc2ncc(Cl)cn2)nn1 [Compound 272] | 0 | 0 | 0 | 0 | 0 | 0 | 0 | 0 | 0 | 0 | 0 | 0 | 0 | 0 | 0 | 0 | 0 | 0 | 0 | 0 | Plant response rating, Ragweed (ragweed [8]): 0; Ragweed plant response rating (0 to 100 scale) (ragweed [8]): 0; Plant response rating, Pigweed (pigweed [9]; 31 g ai/ha): 0; Plant response rating, Pigweed (pigweed [9]; 125 g ai/ha): 0; Plant response rating, Barnyardgrass (barnyardgrass [10]; 31 g ai/ha): 0; Plant response rating, Barnyardgrass (barnyardgrass [10]; 125 g ai/ha): 0; Plant response rating, Ryegrass, Italian (Italian ryegrass [11]): 0; Ryegrass, Italian plant response rating (0 to 100 scale) (Italian ryegrass [11]): 0; Plant response rating, Galium (galium; 31 g ai/ha): 0; Plant response rating, Galium (galium; 125 g ai/ha): 0; Plant response rating, Ryegrass, Italian (Italian ryegrass [12]; 31 g ai/ha): 0; Plant response rating, Ryegrass, Italian (Italian ryegrass [12]; 125 g ai/ha): 0; Plant response rating, Pigweed (pigweed [13]): 0; Pigweed plant response rating (0 to 100 scale) (pigweed [13]): 0; Plant response rating, Corn (corn; 31 g ai/ha): 0; Plant response rating, Corn (corn; 125 g ai/ha): 0 |
| FC(F)(F)c1cnn(-c2c(Oc3ncc(Cl)cn3)cccc2-c2ncon2)c1 [Compound 279] | 40 | 90 | 40 | 90 | 0 | 10 | 10 | 40 | 75 | 10 | 50 | 40 | 50 | 20 | 40 | 0 | 30 | 90 | 50 | 90 | Plant response rating, Ragweed (ragweed [8]): 0; Ragweed plant response rating (0 to 100 scale) (ragweed [8]): 10; Plant response rating, Pigweed (pigweed [9]; 31 g ai/ha): 50; Plant response rating, Pigweed (pigweed [9]; 125 g ai/ha): 80; Plant response rating, Barnyardgrass (barnyardgrass [10]; 31 g ai/ha): 0; Plant response rating, Barnyardgrass (barnyardgrass [10]; 125 g ai/ha): 30; Plant response rating, Ryegrass, Italian (Italian ryegrass [11]): 0; Ryegrass, Italian plant response rating (0 to 100 scale) (Italian ryegrass [11]): 0; Plant response rating, Galium (galium; 31 g ai/ha): 20; Plant response rating, Galium (galium; 125 g ai/ha): 80; Plant response rating, Ryegrass, Italian (Italian ryegrass [12]; 31 g ai/ha): 0; Plant response rating, Ryegrass, Italian (Italian ryegrass [12]; 125 g ai/ha): 50; Plant response rating, Pigweed (pigweed [13]): 90; Pigweed plant response rating (0 to 100 scale) (pigweed [13]): 100; Plant response rating, Corn (corn; 31 g ai/ha): 10; Plant response rating, Corn (corn; 125 g ai/ha): 10 |
| NS(=O)(=O)c1cnn(-c2ccccc2Oc2ncc(Cl)cn2)c1 [Compound 282] |  |  |  |  |  |  |  |  | 0 |  |  |  |  |  |  |  |  | 0 | 0 | 0 | Plant response rating, Kochia (kochia [1]; 1000 g ai/ha): 90; Kochia plant response rating (kochia [2]; [14]): 100; Barnyardgrass plant response rating (barnyardgrass [3]; [14]): 90; Plant response rating, Blackgrass (blackgrass; 1000 g ai/ha): 100; Plant response rating, Foxtail, Giant (giant foxtail [5]; 1000 g ai/ha): 60; Foxtail, Giant plant response rating (giant foxtail [6]; [14]): 100; Plant response rating, Ragweed (ragweed [7]; 1000 g ai/ha): 100; Plant response rating, Wheat (wheat; 1000 g ai/ha): 0; Ragweed plant response rating (ragweed [8]; [14]): 100; Plant response rating, Pigweed (pigweed [9]; 1000 g ai/ha): 80; Plant response rating, Barnyardgrass (barnyardgrass [10]; 1000 g ai/ha): 90; Ryegrass, Italian plant response rating (Italian ryegrass [11]; [14]): 50; Plant response rating, Galium (galium; 1000 g ai/ha): 30; Plant response rating, Ryegrass, Italian (Italian ryegrass [12]; 1000 g ai/ha): 80; Pigweed plant response rating (pigweed [13]; [14]): 100; Plant response rating, Corn (corn; 1000 g ai/ha): 50 |
